This passage reports IC50 results from patent US20250353835A1, “N-TETRAZOLYL ARYL UREA-BASED DERIVATIVES, PREPARATION METHOD THEREFOR, AND USE THEREOF” (Hangzhou Yirui Pharmaceutical Technology Co., Ltd, priority 2022, published 2025).

The target in this assay is T1, human B1R (Homo sapiens, UniProt P46663).
T1 construct: host or cells: HEK293
T1 sequence (P46663 1-353): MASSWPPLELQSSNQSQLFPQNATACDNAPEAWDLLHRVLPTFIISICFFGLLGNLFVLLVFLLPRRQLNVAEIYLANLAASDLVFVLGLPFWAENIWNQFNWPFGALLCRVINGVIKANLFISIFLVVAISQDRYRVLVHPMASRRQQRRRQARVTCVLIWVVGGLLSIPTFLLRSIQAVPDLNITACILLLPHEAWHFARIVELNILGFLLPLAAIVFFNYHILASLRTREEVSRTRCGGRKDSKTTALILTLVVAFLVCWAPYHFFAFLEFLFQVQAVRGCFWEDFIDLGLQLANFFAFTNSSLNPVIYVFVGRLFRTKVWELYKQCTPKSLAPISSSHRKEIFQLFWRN
The experiment in a line: FLIPR calcium ion flux assay, inhibitory activity against human B1R. Conditions: HEK293 cells stably expressing human B1R; agonist [Lys-des-Arg9]-Bradykinin 4.6 nM (EC80); FLIPR method. The format is cell-based. On the procedure: The inhibitory activity of the compounds against human B1R and B2R channels was determined by calcium ion flux assay using fluorometric imaging plate reader (FLIPR method). See literatures of Lee, Chen et al. for the method. [Lee et al. 2008][Chen et al. 2011]
1. Cell culture: HEK293 recombinant cell lines (WuXi AppTec, Shanghai, China) stably expressing human B1R and B2R were cultured in DMEM (Invitrogen, Cat #11965) medium containing 10% calf serum (Excellbio, Cat #FSP500), 5 μg/ml Geneticin (Invitrogen, Cat #10131) and Penicillin/Streptomycin (Invitrogen, Cat #15140). The incubator conditions were 37° C. and ambient humidity containing 5% CO2.
2. Preparation of the cell assay plate: B1R and B2R cells were seeded in a 384-well assay plate (Greiner, Cat #781090) at a density of 20,000 cells per well (20 μl/well), and cultured overnight at 37° C. in an incubator with 5% CO2. The next day, Fluo-4 Direct™ Loading Buffer (containing 5 mM Probenicid) containing 2× (8 μM) Fluo-4 Direct (Invitrogen, Cat #F10471) was added to each of the wells. The cells were cultured at 37° C. for 50 min, and then culture for at the room temperature 10 min.
3. Preparation of the compound assay plate: The compound was dissolved in 100% DMSO to make a 30 mM stock solution and stored at −20° C. On the day of use, the stock solution of the compound was thawed at the room temperature. Each of the compounds was serially diluted at 1:5 in DMSO culture medium with a starting concentration of 30 μM for 9 concentration points on a 384-well plate. Each of compounds was diluted in duplicate for testing. [Des-Arg10]-HOE140 was used as a positive control compound, and diluted in the same manner with a starting concentration of 3 μM.
4. FLIPR assay: The cell assay plate was placed in a FLIPR instrument ([…]). The compounds in the compound assay plate were added to the corresponding wells on the cell assay plate (10 μL/well) using an automatic program. The calcium ion fluorescence signal was recorded to determine whether the compound may have agonist activity. After 10 minutes, a B1R agonist [Lys-des-Arg9]-Bradykinin2 (10 μL/well) with a final concentration of 4.6 nM (EC80) was added to each of the wells to stimulate the generation of intracellular calcium ion flux signals. The Ca^++-dependent fluorescence signal was continuously monitored at a wavelength of 538 nm to analyze the inhibitory activity of the compound.
5. Data analysis: The data was collected and analyzed by a FLIPR program. The inhibitory (or agonist) activity of the compound at each concentration was evaluated by the fluorescence peak. The IC50 values of the compounds were calculated using EXCEL and PRISM programs.
As usually defined, the IC50 is the concentration that gives 50% inhibition. `Cn1ncc2cc(-c3c(F)cc(NC(=O)N4CCC(C(C)(C)C)CC4)cc3-c3nn[nH]n3)ccc21` [Compound 32, 4-(tert-butyl)-N-(3-fluoro-4-(1-methyl-1H-indazol-5-yl)-5-(2H-tetrazol-5-yl)phenyl)piperidine-1-carboxamide]: the half-inhibitory concentration (IC50) amounted to 14.2 nM.

Take `COc1ccc(-c2c(F)cc(NC(=O)N3CCC(C(C)(C)C)CC3)cc2-c2nn[nH]n2)cc1Cl` [Compound 33, 4-(tert-butyl)-N-(3′-chloro-2-fluoro-4′-methoxy-6-(2H-tetrazol-5-yl)-[1,1′-biphenyl]-4-yl)piperidine-1-carboxamide]: the IC50 stood at 14.6 nM.

On to `Cn1ncc2cc(-c3c(F)cc(NC(=O)N4CCC(C(F)(F)F)CC4)cc3-c3nn[nH]n3)ccc21` [Compound 34, N-(3-fluoro-4-(1-methyl-1H-indazol-5-yl)-5-(2H-tetrazol-5-yl)phenyl)-4-(trifluoromethyl)piperidine-1-carboxamide], for which the IC50 amounted to 21.4 nM.

For `COc1ccc(-c2ncc(NC(=O)N3CCC(C(C)(C)C)CC3)cc2-c2nn[nH]n2)cc1OC` [Compound 35, 4-(tert-butyl)-N-(6-(3,4-dimethoxyphenyl)-5-(2H-tetrazol-5-yl)pyrid-3-yl)piperidine-1-carboxamide], the IC50 is 92.9 nM.

Turning to `Cn1ncc2cc(-c3ncc(NC(=O)N4CCC(C(C)(C)C)CC4)cc3-c3nn[nH]n3)ccc21` [Compound 36, 4-(tert-butyl)-N-(6-(1-methyl-1H-indazol-5-yl)-5-(2H-tetrazol-5-yl)pyrid-3-yl)piperidine-1-carboxamide], the IC50 was found to be 48.3 nM.

Turning to `CCOC(=O)c1ncc(NC(=O)N2CCC(C(C)(C)C)CC2)cc1-c1nn[nH]n1` [Compound 37, ethyl 5-(4-(tert-butyl)piperidine-1-formamido)-3-(2H-tetrazol-5-yl)pyridylcarboxylate], the half-maximal inhibitory concentration (IC50) turned out to be 72.7 nM.

With `CC(C)(C)C1CCN(C(=O)Nc2cnc(C(=O)OC3CCCCC3)c(-c3nn[nH]n3)c2)CC1` [Compound 38, cyclohexyl 5-(4-(tert-butyl)piperidine-1-formamido)-3-(2H-tetrazol-5-yl)pyridylcarboxylate], the IC50 was 83.7 nM.

`CC(C)(C)C1CCN(C(=O)Nc2ccc(-c3ccc4c(c3)OCO4)c(-c3nn[nH]n3)c2)CC1` [Compound 39, N-(4-(benzo[d][1,3]dioxolan-5-yl)-3-(2H-tetrazol-5-yl)phenyl)-4-(tert-butyl)piperidine-1-carboxamide]: the IC50 was 82.4 nM.

On to `CC(C)(C)C1CCN(C(=O)Nc2ccc(C3CCOCC3)c(-c3nn[nH]n3)c2)CC1` [Compound 40, 4-(tert-butyl)-N-(4-(tetrahydro-2H-pyran-4-yl)-3-(2H-tetrazol-5-yl)phenyl)piperidine-1-carboxamide], for which the IC50 was 2040 nM.

As to `CC(C)(C)C1CCN(C(=O)Nc2ccc(C3C=COCC3)c(-c3nn[nH]n3)c2)CC1` (stereo not shown) [Compound 41, 4-(tert-butyl)-N-(4-(3,4-dihydro-2H-pyran-4-yl)-3-(2H-tetrazol-5-yl)phenyl)piperidine-1-carboxamide], the IC50 was determined as 448 nM.

Regarding `CC(C)(C)C1CCN(C(=O)Nc2ccc(-c3ccc(C(F)F)nc3)c(-c3nn[nH]n3)c2)CC1` [Compound 42, 4-(tert-butyl)-N-(4-(6-(difluoromethyl)pyrid-3-yl)-3-(2H-tetrazol-5-yl)phenyl)piperidine-1-carboxamide], the IC50 amounted to 109 nM.

As to `CC(C)(C)C1CCN(C(=O)Nc2ccc(C(=O)OC3CCCC3)c(-c3nn[nH]n3)c2)CC1` [Compound 43, cyclopentyl 4-(4-(tert-butyl)piperidine-1-formamido)-2-(2H-tetrazol-5-yl)benzoate], the IC50 is 95.2 nM.

As for `CC(C)(C)C1CCN(C(=O)Nc2ccc(C(=O)OC3CCOC3)c(-c3nn[nH]n3)c2)CC1` (stereo not shown) [Compound 44, tetrahydrofuran-3-yl 4-(4-(tert-butyl)piperidine-1-formamido)-2-(2H-tetrazol-5-yl)benzoate], the IC50 came out at 106 nM.

For the molecule `CCOC(=O)c1ccc(NC(=O)N2CCC(C(C)(C)C)CC2)cc1-c1nn[nH]n1` [Compound 45, ethyl 4-(4-(tert-butyl)piperidine-1-formamido)-2-(2H-tetrazol-5-yl)benzoate], the IC50 is 103 nM.

On to `CC(C)(C)C1CCN(C(=O)Nc2ccc(C(=O)NC3CCCC3)c(-c3nn[nH]n3)c2)CC1` [Compound 46, 4-(tert-butyl)-N-(4-(cyclopentylaminoformyl)-3-(2H-tetrazol-5-yl)phenyl)piperidine-1-carboxamide], for which the IC50 came out at 74.6 nM.

With `Cc1ccc(NC(=O)c2ccc(NC(=O)N3CCC(C(C)(C)C)CC3)cc2-c2nn[nH]n2)nc1` [Compound 47, 4-(tert-butyl)-N-(4-((5-methylpyridin-2-yl)aminoformyl)-3-(2H-tetrazol-5-yl)phenyl)piperidine-1-carboxamide], the IC50 came to 93.9 nM.

Regarding `COc1cncc(-c2ccc(NC(=O)N3CCC(C(C)(C)C)CC3)cc2-c2nn[nH]n2)c1` [Compound 48, 4-(tert-butyl)-N-(4-(5-methoxypyrid-3-yl)-3-(2H-tetrazol-5-yl)phenyl)piperidine-1-carboxamide], the IC50 came to 372 nM.

Take `CC(C)Oc1ccc(-c2ccc(NC(=O)N3CCC(C(C)(C)C)CC3)cc2-c2nn[nH]n2)cn1` [Compound 49, 4-(tert-butyl)-N-(4-(6-isopropoxypyrid-3-yl)-3-(2H-tetrazol-5-yl)phenyl)piperidine-1-carboxamide]: the half-maximal inhibitory concentration (IC50) is 9.6 nM.

In the case of `COc1cncc(-c2c(F)cc(NC(=O)N3CCC(C(C)(C)C)CC3)cc2-c2nn[nH]n2)c1` [Compound 50, 4-(tert-butyl)-N-(3-fluoro-4-(5-methoxypyrid-3-yl)-5-(2H-tetrazol-5-yl)phenyl) piperidine-1-carboxamide], the IC50 was determined as 54.8 nM.

With `Cc1ccc(-c2ccc(NC(=O)N3CCC(C(C)(C)C)CC3)cc2-c2nn[nH]n2)cn1` [Compound 51, 4-(tert-butyl)-N-(4-(6-methylpyrid-3-yl)-3-(2H-tetrazol-5-yl)phenyl)piperidine-1-carboxamide], the IC50 was found to be 17.8 nM.

As for `Cc1cc(-c2ccc(NC(=O)N3CCC(C(C)(C)C)CC3)cc2-c2nn[nH]n2)ccn1` [Compound 52, 4-(tert-butyl)-N-(4-(2-methylpyridin-4-yl)-3-(2H-tetrazol-5-yl)phenyl)piperidine-1-carboxamide], the IC50 was found to be 34.9 nM.

As for `CC(C)(C)C1CCN(C(=O)Nc2cc(F)c(C(=O)NC3CCCC3)c(-c3nn[nH]n3)c2)CC1` [Compound 53, 4-(tert-butyl)-N-(4-(cyclopentylaminoformyl)-3-fluoro-5-(2H-tetrazol-5-yl)phenyl)piperidine-1-carboxamide], the IC50 came to 48.1 nM.

As to `Cc1ccc(NC(=O)c2c(F)cc(NC(=O)N3CCC(C(C)(C)C)CC3)cc2-c2nn[nH]n2)nc1` [Compound 54, 4-(tert-butyl)-N-(3-fluoro-4-((5-methylpyridin-2-yl)aminoformyl)-5-(2H-tetrazol-5-yl)phenyl)piperidine-1-carboxamide], the IC50 amounted to 67.9 nM.

Turning to `Cc1ccc(-c2c(F)cc(NC(=O)N3CCC(C(C)(C)C)CC3)cc2-c2nn[nH]n2)cn1` [Compound 55, 4-(tert-butyl)-N-(3-fluoro-4-(6-methylpyrid-3-yl)-5-(2H-tetrazol-5-yl)phenyl)piperidine-1-carboxamide], the IC50 was 8.9 nM.

On to `CC(C)Oc1ccc(-c2c(F)cc(NC(=O)N3CCC(C(C)(C)C)CC3)cc2-c2nn[nH]n2)cn1` [Compound 56, 4-(tert-butyl)-N-(3-fluoro-4-(6-isopropoxypyrid-3-yl)-5-(2H-tetrazol-5-yl)phenyl)piperidine-1-carboxamide], for which the IC50 was found to be 7.6 nM.
